The record followed here is ChEMBL document CHEMBL4390710, “Synthesis and biological evaluation of novel 4,7-dihydroxycoumarin derivatives as anticancer agents” (Bioorg Med Chem Lett, 2019).

Assay [1] has as its system A549. The experiment in a line: Cytotoxicity against human A549 cells measured after 24 hrs by MTT assay. The assay is classed as functional, cell-based. (In general: Tetrazolium dyes change colour on reduction, which living cells bring about.)
For assay [2], the system named is HeLa. The experiment in a line: Cytotoxicity against human HeLa cells measured after 24 hrs by MTT assay. The assay is classed as functional, cell-based. Set-up: unit not given here.
The subject of assay [3] is SK-N-SH. The experiment in a line: Cytotoxicity against human SK-N-SH cells measured after 24 hrs by MTT assay. Type of assay: functional, cell-based.
Assay [4] concerns MCF7. The experiment in a line: Cytotoxicity against human MCF7 cells measured after 24 hrs by MTT assay. The assay is classed as functional, cell-based.
Assay [5] relates to NRK-49F. The experiment in a line: Cytotoxicity against rat NRK-49F cells measured after 24 hrs by MTT assay. The assay is classed as functional, cell-based.
In assay [6] the test system is MCF7. The experiment in a line: Cell cycle arrest in human MCF7 cells assessed as accumulation at G1-phase at 4 uM measured after 24 hrs by propidium iodide staining based flow cytometry (reference value: 57%). Type of assay: functional. (In general: Flow cytometry measures light scatter and fluorescence of single cells or particles in a stream.)
Assay [7] deals with MCF7. The experiment in a line: Cell cycle arrest in human MCF7 cells assessed as accumulation at S-phase at 4 uM measured after 24 hrs by propidium iodide staining based flow cytometry (reference value: 14.9%). Type of assay: functional.
The test system of assay [8] is MCF7. The experiment in a line: Cell cycle arrest in human MCF7 cells assessed as accumulation at G2/M-phase at 4 uM measured after 24 hrs by propidium iodide staining based flow cytometry (reference value: 13.8%). The assay is classed as functional.
The subject of assay [9] is MCF7. The experiment in a line: Cell cycle arrest in human MCF7 cells assessed as accumulation at subG0-phase at 4 uM measured after 24 hrs by propidium iodide staining based flow cytometry (reference value: 13.9%). The assay is classed as functional.
Assay [10] deals with MCF7. The experiment in a line: Cell cycle arrest in human MCF7 cells assessed as accumulation at G2/M-phase at 4 uM measured after 24 hrs by propidium iodide staining based flow cytometry relative to control. Type of assay: functional.
Assay [11] is described as follows: Inhibition of goat brain tubulin polymerization. Set-up: species or system Capra hircus.

Molecules are shown by their SMILES.

Consider `C/C(=N\NC(=O)/C(C#N)=C/c1ccc(Br)cc1)c1c(O)c2ccc(O)cc2oc1=O`, for which the IC50 in assay [1] worked out at 11.43 µmol; in assay [2], 10.56; in [3], 12.05 µmol; in [4], 9.85 µmol; in assay [5], 49.64 µmol.
In the case of `C/C(=N\NC(=O)/C(C#N)=C/c1ccccc1)c1c(O)c2ccc(O)cc2oc1=O`, the IC50 in assay [1] is 14.82 µmol; in assay [2], 15.75; in [3], 13.52 µmol; in assay [4] it was 19.22 µmol; in assay [5], 55.45 µmol.
With `COc1ccc(/C=C(\C#N)C(=O)N/N=C(\C)c2c(O)c3ccc(O)cc3oc2=O)cc1`, the IC50 in [1] was 8.15 µmol; in assay [2], 7.85; in [3], 9.46 µmol; in [4], 8.94 µmol; in assay [5] it was 96.1 µmol.
Turning to `COc1cccc2c1C(=O)c1c(O)c3c(c(O)c1C2=O)C[C@@](O)(C(=O)CO)C[C@@H]3O[C@H]1C[C@H](N)[C@H](O)[C@H](C)O1` [DOXORUBICIN], the IC50 in assay [1] was found to be 6.22 µmol; in [3], 6.42 µmol; in [4] it was 9.86 µmol; in [5], 24.22 µmol.
Turning to `COC(=O)Nc1nc2cc(C(=O)c3cccs3)ccc2[nH]1` [NOCODAZOLE], the Activity in [6] is 21.6%; in [7], 22%; in assay [8], 39.3%; in assay [9], 16.4 - 16.8%.
For the compound `C/C(=N\NC(=O)/C(C#N)=C/c1cccc(Br)c1)c1c(O)c2ccc(O)cc2oc1=O`, the IC50 turned out to be 22.15 µmol in assay [1]; 24.28 in assay [2]; 31.28 µmol in [3]; 19.64 µmol in [4]; 59.39 µmol in assay [5].
On the same counts, the results for `C/C(=N\NC(=O)/C(C#N)=C/c1ccc([N+](=O)[O-])cc1)c1c(O)c2ccc(O)cc2oc1=O` are 9.64 µmol, 8.36, 10.26 µmol, 8.2 µmol and 43.22 µmol.
On the same counts, the results for `COc1ccc(/C=C(\C#N)C(=O)N/N=C(\C)c2c(O)c3ccc(O)cc3oc2=O)cc1OC` are 14.32 µmol, 13.52, 21.53 µmol, 14.35 µmol and 45.28 µmol.
For `C/C(=N\NC(=O)/C(C#N)=C/c1ccc(N(C)C)cc1)c1c(O)c2ccc(O)cc2oc1=O`, the IC50 in [1] was 4.31 µmol; in assay [2], 5.14; in assay [3], 6.09 µmol; in assay [4], 3.42 µmol; in assay [5], 53.41 µmol; in assay [11] it was 6.19 µM. Besides, the Activity in assay [6] is on record as 22.7 - 22.8%; in assay [7], 22.6%; in [8] it was 45.3%; in [9] it was 8.5 - 10.6%. The “fold change (FC)” value in [10] was determined as 4.
Take `COc1cc(/C=C(\C#N)C(=O)N/N=C(\C)c2c(O)c3ccc(O)cc3oc2=O)cc(OC)c1OC`: the IC50 in assay [1] was 15.32 µmol; in assay [2], 18.46; in assay [3], 14.61 µmol; in assay [4], 11.34 µmol; in assay [5], 55.34 µmol.
As for `C/C(=N\NC(=O)/C(C#N)=C/c1ccccc1[N+](=O)[O-])c1c(O)c2ccc(O)cc2oc1=O`, the IC50 in [1] is 11.35 µmol; in [2] it was 10.31; in assay [3] it was 12.26 µmol; in [4], 9.18 µmol; in assay [5], 68.59 µmol.
Take `C/C(=N\NC(=O)/C(C#N)=C/c1ccccc1Cl)c1c(O)c2ccc(O)cc2oc1=O`: the IC50 in assay [1] was determined as 14.23 µmol; in [2], 11.78; in assay [3], 14.02 µmol; in assay [4] it was 8.88 µmol; in assay [5], 55.89 µmol.
In the case of `C/C(=N\NC(=O)/C(C#N)=C/c1cccc([N+](=O)[O-])c1)c1c(O)c2ccc(O)cc2oc1=O`, the IC50 was 21.9 µmol in [1]; 24.64 in assay [2]; 28.26 µmol in assay [3]; 16.35 µmol in assay [4]; 46.53 µmol in assay [5].
As for `COc1cc(/C=C(\C#N)C(=O)N/N=C(\C)c2c(O)c3ccc(O)cc3oc2=O)ccc1O`, the IC50 in assay [1] worked out at 12.63 µmol; in assay [2], 10.46; in assay [3], 14.35 µmol; in assay [4], 13.65 µmol; in assay [5], 55.42 µmol.
For the compound `C/C(=N\NC(=O)/C(C#N)=C/c1ccc(O)cc1)c1c(O)c2ccc(O)cc2oc1=O`, the IC50 in [1] was found to be 6.23 µmol; in assay [2], 6.02; in [3] it was 8.12 µmol; in [4], 7.32 µmol; in assay [5] it was 61.31 µmol.
